{"source": "patent US4804651A", "about": "“Methods and compositions for the treatment of psoriasis” (Board of Regents, The University of Texas System, priority 1987, dated 1989)", "origin": "cited, not measured here", "settings": "cited from earlier work", "data": [{"smiles": "Cc1cn([C@H]2C[C@H](N=[N+]=[N-])[C@@H](CO[C@@H]3O[C@H](C(=O)O)[C@@H](O)[C@H](O)[C@H]3O)O2)c(=O)[nH]c1=O", "note": "[GAZT, 5'-glucuronide of AZT]", "values": [{"measurement": "activity of the metabolite", "setting": "in vivo", "value": "inactive"}, {"measurement": "metabolite identification", "setting": "plasma and urine", "value": "major plasma and urinary metabolite"}, {"measurement": "clearance from plasma (metabolite)", "setting": "plasma", "value": "rapidly cleared from plasma"}, {"measurement": "plasma level relative to the corresponding AZT level", "setting": "plasma", "value": "2-3 ×"}]}]}
